Where a name gives a salt, the structure may show the parent alone. Read-outs that look alike come from different tables or passages of the source.
Columns and labels:
[1] = tested on: Tetrabenazine induced ptosis in mice; experiment: Prevention of tetrabenazine (TBZ) induced ptosis in mice (antidepressant activity); type: in vivo; conditions: Mus musculus; for inhibition in vivo at 20 mg/kg: 20 mg/kg i.p., read-out: TBZ Percent ptosis inhit. @ 20 mg/kg i.p.
Experimental: The method used is as follows.
Male mice weighing 20 to 30 grams are used in test groups of five subjects. All compounds are dissolved, or suspended with one drop of a non-ionic surfactant in distilled water and administered in volumes of 10 ml/kg of body weight. Tetrabenazine (TBZ) solution is made from methanesulfonate salt and the concentration is adjusted to enable the administration of 40 mg/kg of base by intraperitoneal injection (i.p.).
If the test compound is administered intraperitoneally, TBZ is injected 30 minutes after administration. If the test compound is administered orally (p.o.), TBZ is injected 60 minutes after the administration. A control group receives solvent and TBZ by the same route and at the same intervals as the drug groups.
The total score for each group of five will therefore be from 0 to 20 and these scores are used as indications of drug activity.
The vehicle-control group score is used as a determinate of the validity of each test.
A linear-regression analysis is used to estimate ED50 values.

[2] = tested on: 2-phenyl-1,4-benzoquinone-induced writhing in mice; experiment: 2-phenyl-1,4-benzoquinone-induced writhing (PQW) test in mice (analgesic activity); type: in vivo; conditions: for PQW Percent writhing inhib.: s.c.; for inhibition in vivo at 10 mg/kg / ED50: Mus musculus, sc; for inhibition in vivo at 10 mg/kg: 10 mg/kg s.c., read-out: PQW Percent writhing inhib. @ 10 mg/kg s.c.
Excerpt: Compounds I of the present invention are also useful as analgesic agents due to their ability to alleviate pain in mammals. […] Exptl. Biol. Med., 95, 729 (1957)].

[3] = footnote a: determined by oral administration, mice, TBZ 40 mg/kg i.p., read-out: TBZ ED50 i.p.

| SMILES | inhibition in vivo at 20 mg/kg ([1]; ip, mice) | inhibition in vivo at 10 mg/kg [2] | also measured |
| --- | --- | --- | --- |
| CN(C)CCC1(c2ccccc2)COc2ccccc21.O=C(O)C(=O)O (stereo not shown) [2-(3-Phenyl-2,3-dihydrobenzofuran-3-yl)-N,N-dimethylethylamine oxalate] | – | – | ED50 [1, 3]: 3.03 mg/kg; PQW Percent writhing inhib. ([2]; footnote b: at 20 mg/kg): 49% |
| CN(CCC1(c2ccccc2)COc2ccccc21)C(=O)OCC(Cl)(Cl)Cl (stereo not shown) [2-(3-Phenyl-2,3-dihydrobenzofuran-3-yl)-N-(2,2,2-trichloroethoxycarbonyl)-N-methylethylamine] | 6% | – | – |
| CN(CCC#N)CCC1(c2ccccc2)COc2ccccc21 (stereo not shown) [2-(3-Phenyl-2,3-dihydrobenzofuran-3-yl)-N-(2-cyanoethyl)-N-methylethylamineoxalate] | 21% | – | PQW Percent writhing inhib. ([2]; footnote b: at 20 mg/kg): 33% |
| CN(C#N)CCC1(c2ccccc2)COc2ccccc21 (stereo not shown) [2-(3-Phenyl-2,3-dihydrobenzofuran-3-yl)-N-cyano-N-methylethylamine] | 20% | 59% | – |
| CN(CCC1(c2ccccc2)COc2ccccc21)CC1CC1.O=C(O)/C=C/C(=O)O (stereo not shown) [2-(3-Phenyl-2,3-dihydrobenzofuran-3-yl)-N-cyclopropylmethyl-N-methylethylamine fumarate] | 22% | – | ED50 [2]: 6.27 mg/kg |
| CN(CCc1ccccc1)CCC1(c2ccccc2)COc2ccccc21.O=C(O)/C=C/C(=O)O (stereo not shown) [2-(3-Phenyl-2,3-dihydrobenzofuran-3-yl)-N-methyl-N-phenethylethylamine fumarate] | 17% | – | ED50 [2]: 20 mg/kg |
| CNCCC1(c2ccccc2)COc2ccccc21.Cl (stereo not shown) [2-(3-Phenyl-2,3-dihydrobenzofuran-3-yl)-N-methylethylamine hydrochloride] | – | 53% | ED50 [1, 3]: 4.99 mg/kg |
| CN(C)CCCC1(c2ccccc2)COc2ccccc21.O=C(O)C(=O)O (stereo not shown) [3-(3-Phenyl-2,3-dihydrobenzofuran-3-yl)-N,N-dimethylpropylamine oxalate] | 37% | – | PQW Percent writhing inhib. ([2]; footnote c: at 25 mg/kg): 59% |
| CN(CCCC1(c2ccccc2)COc2ccccc21)C(=O)OCC(Cl)(Cl)Cl (stereo not shown) [3-(3-Phenyl-2,3-dihydrobenzofuran-3-yl)-N-(2,2,2-trichloroethoxycarbonyl)-N-methylpropylamine] | – | 32% | – |
| CN(CCCC1(c2ccccc2)COc2ccccc21)CC1CC1 (stereo not shown) [3-(3-Phenyl-2,3-dihydrobenzofuran-3-yl)-N-cyclopropylmethyl-N-methylpropylamine oxalate] | 10% | 48% | – |
| CN(CCCC1(c2ccccc2)COc2ccccc21)CCc1ccccc1 (stereo not shown) [3-(3-Phenyl-2,3-dihydrobenzofuran-3-yl)-N-methyl-N-phenethylpropylamine oxalate] | 0% | 46% | – |
| CNCCCC1(c2ccccc2)COc2ccccc21.Cl (stereo not shown) [3-(3-Phenyl-2,3-dihydrobenzofuran-3-yl)-N-methylpropylamine hydrochloride] | – | 54% | ED50 ([1]; ip, mice, TBZ 40 mg/kg i.p., read-out: TBZ ED50 i.p.): 13.7 mg/kg |
| CN(C)CCCC1(c2ccccc2)COc2ccc(Cl)cc21.O=C(O)C(=O)O (stereo not shown) [3-(3-Phenyl-5-chloro-2,3-dihydrobenzofuran-3-yl)-N,N-dimethylpropylamine oxalate] | 15% | – | PQW Percent writhing inhib. ([2]; footnote b: at 20 mg/kg): 38% |
| CN(C)CCC1(c2ccccc2F)COc2ccccc21 (stereo not shown) [3-[3-(2-Fluorophenyl)-2,3-dihydrobenzofuran-3-yl]-N,N--dimethylethylamine fumarate] | 60% | 35% | – |
| Cc1ccccc1C1(CCN(C)C)COc2ccccc21 (stereo not shown) [3-[3-(2-Tolyl)-2,3-dihydrobenzofuran-3-yl]-N,N-dimethylethylamine fumarate] | 10% | 34% | – |
| Cc1ccc(C2(CCN(C)C)COc3ccccc32)cc1 (stereo not shown) [3-[3-(4-Tolyl)-2,3-dihydrobenzofuran-3-yl]-N,N-dimethylethylamine fumarate] | 20% | 61% | – |
| CN(C)CCCN1c2ccccc2CCc2ccccc21 [imipramine, reference compound] | – | – | ED50 ([1]; po, read-out: antidepressant ED50): 5.5 mg/kg |

— US4602035A, “Antidepressant (3-aryl-2,3-dihydrobenzofuran-3-yl)alkylamines” (Hoechst-Roussel Pharmaceuticals Inc., priority 1983, dated 1986)
